{"source": "ChEMBL document CHEMBL1155295", "about": "“Benzo[c][2,7]naphthyridines as inhibitors of PDK-1” (Bioorg Med Chem Lett, 2009)", "data": [{"target": "T1, 3-phosphoinositide-dependent protein kinase 1 (Homo sapiens, UniProt O15530)", "T1 sequence (O15530 whole entry)": "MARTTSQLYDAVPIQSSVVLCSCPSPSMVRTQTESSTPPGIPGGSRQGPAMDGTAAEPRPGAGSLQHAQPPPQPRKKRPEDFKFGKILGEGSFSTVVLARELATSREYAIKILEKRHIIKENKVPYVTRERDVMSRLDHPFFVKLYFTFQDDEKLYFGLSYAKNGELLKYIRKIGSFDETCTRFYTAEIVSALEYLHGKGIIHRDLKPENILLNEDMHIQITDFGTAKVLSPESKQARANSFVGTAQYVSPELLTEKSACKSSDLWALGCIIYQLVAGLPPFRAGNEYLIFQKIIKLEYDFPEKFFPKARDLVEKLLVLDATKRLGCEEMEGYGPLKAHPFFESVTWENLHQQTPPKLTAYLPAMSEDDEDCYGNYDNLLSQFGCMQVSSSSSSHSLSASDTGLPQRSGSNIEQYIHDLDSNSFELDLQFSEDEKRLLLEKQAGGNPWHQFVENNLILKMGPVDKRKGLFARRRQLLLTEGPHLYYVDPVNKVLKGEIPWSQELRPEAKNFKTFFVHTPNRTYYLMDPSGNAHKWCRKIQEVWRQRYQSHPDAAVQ", "assay": "Inhibition of PDPK1 by ELISA assay", "units": {"IC50": "nM"}, "values": [{"smiles": "COc1cc2ncc3c(N)nc(-c4cccnc4)cc3c2cc1OC", "IC50": 35}, {"smiles": "COc1cc2ncc3c(N)nc(-c4ccoc4)cc3c2cc1OC", "IC50": "> 1000"}, {"smiles": "COc1cc2ncc3c(N)nc(-c4cncc(Nc5ccccc5F)c4)cc3c2cc1OC", "IC50": 30}, {"smiles": "COc1cc2ncc3c(N)nc(-c4ccccn4)cc3c2cc1OC", "IC50": "> 100"}, {"smiles": "COc1cc2ncc3c(N)nc(-c4cncc(N)c4)cc3c2cc1OC", "IC50": 26}, {"smiles": "COc1cc2c(cc1OCc1ccccc1)ncc1c(N)nc(-c3cccnc3)cc12", "IC50": 146}, {"smiles": "COc1cc2ncc3c(N)nc(-c4cncc(Br)c4)cc3c2cc1OC", "IC50": 65}, {"smiles": "COc1cc2c(cc1OCCCN1CCCCC1)ncc1c(N)nc(-c3cccnc3)cc12", "IC50": 144}, {"smiles": "COc1cc2ncc3c(N)nc(-c4cncc(Nc5ccccc5OCc5ccccc5)c4)cc3c2cc1OC", "IC50": "> 1000"}, {"smiles": "COc1cc2ncc3c(N)nc(-c4ccc(N)nc4)cc3c2cc1OC", "IC50": "> 1000"}, {"smiles": "COc1cc2ncc3c(N)nc(-n4ccnc4)cc3c2cc1OC", "IC50": 100}]}]}
